In series [1] the test system is Human Rhinovirus 16 (HRV16). Briefly: H1-HeLa HRV-CTG 384-well assay, HRV16, Example X. It is filed as cell-based. The conditions noted are these: Rhinovirus A, 96 h, read-out: EC50 H1-HeLa_HRV 16_HRV-CTG 384-well Assay (per Ex. X). In outline: (§1)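 H1-HeLa cells (5,000/well, DMEM 2% FBS) infected with HRV1B, HRV14 or HRV16 at MOI 0.5, 1.0 and 0.25 respectively, with 10-point 1:3 compound dilutions; 4 days at 37 °C. Viability by CellTiter-Glo luminescence, normalized to rupintrivir and DMSO controls; EC50 by non-linear regression.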

A short description of series [2]: GI S9 stability, cyno, Example Y. Format: in vitro ADME. Particulars: cynomolgus monkey, pooled intestinal S9 fractions; cyno intestinal S9, 1.0 mg/mL protein, 2 μM compound, pH 7.4; read-out: GIS9 Cyno T½ (per Ex. Y). The method, then:
(§2) Example Y: GI S9 Stability Data
(§3) Stock solutions of test compounds in dimethyl sulfoxide (DMSO) having a final concentration of 10 mM were prepared and used in all experiments. Sekisui XenoTech (Kansas City, KS) provided pooled intestinal S9 fractions. All other chemicals were purchased from Sigma-Aldrich (St. Louis, MO) or VWR (West Chester, PA). Internal Standard/Quench (IS/Q) used to stop reactions was 100 nM labetalol in (by volume) methanol (10%) and acetonitrile (90%).
(§4) Stability in Intestinal S9 Fractions: Duplicate aliquots of test compound or positive control substrate were added to S9 stock diluted with phosphate buffered saline (137 mM NaCl, 2.7 mM KCl, 10 mM phosphate buffer), pH 7.4, to obtain a protein concentration of 1.0 mg/mL. The metabolic reactions were initiated by the addition of the substrates to the S9 reaction mixture to a final concentration of 2 μM. At 0, 10, 20, 30, 60 and 120 min, 25 μL aliquots of the reaction mixture were transferred to plates containing 225 μl of IS/Q solution. After quenching, the plates were centrifuged at 3000×g for 30 minutes. 150 μL aliquots of each supernatant were dried down then reconstituted with 300 μL water. Aliquots (10 μL) of the prepared samples were analyzed on a Thermo Q-Exactive mass spectrometer as described below.
(§5) Liquid Chromatography—Mass Spectrometry: Quantification of test compounds and control substrate was performed by analyte/internal standard peak area ratio (PAR) values measured on a Thermo Q-Exactive mass spectrometer coupled to a Dionex UltiMate 3000 HPLC with a Leap Technologies HTC PAL autosampler. The column used for analysis was a Waters Acquity BEH C18 (1.7 μm particle size, 2.1×50 mm). Mobile phase A consisted of 0.1% (v/v) formic acid in water. Mobile phase B consisted of 0.1% (v/v) formic acid in acetonitrile. Elution of analytes was achieved by a series of linear gradients varying the proportions of A and B. The mass spectrometer was calibrated on a weekly basis and mass tolerance of 5 ppm was used.
(§6) Metabolic stabilities in S9 fractions were determined by measuring the rates of disappearance of test compound and positive control substrate.
(§7) Data (% of substrate remaining) were plotted on a semi-log scale and fitted using an exponential decline model:
(§8) Ct=C0×e^−ln2/T1/2×t • Where Ct—% of substrate remaining at time=t; C0—% of substrate remaining at time=0; t—time; T1/2—half-life. • The Half-life (T1/2) is determined by the following equation: […]
(§9) Assuming a first-order reaction, the slope (k) is extrapolated from the aforementioned plotted data.

Series [3] relates to Human Rhinovirus 14 (HRV14). Briefly: H1-HeLa HRV-CTG 384-well assay, HRV14, Example X. Format: cell-based. The conditions noted are these: Rhinovirus B, 96 h, read-out: EC50 H1-HeLa_HRV 14_HRV-CTG 384-well Assay (per Ex. X). In outline: as §1
Series [4] in a line: GI S9 stability, dog, Example Y. It is filed as in vitro ADME. Particulars: dog intestinal S9, 1.0 mg/mL protein, 2 μM compound, pH 7.4; for half-life at 2 μM: pooled intestinal S9 fractions, read-out: GIS9 DOG T½ (per Ex. Y). As for the experimental part:
as §2, §3, §4, §5, §6, §7, §8, §9

Where [5] appears, read: H1-HeLa cells, HRV16 MOI 0.25, 4 days, Celltiter-Glo.
The mark [6] stands for this setting: H1-HeLa cells, HRV14 MOI 1.0, 4 days, Celltiter-Glo.

pEC50: −log10 of the molar value. Like-named read-outs stand apart in the source and are kept apart here.

As to `CC(C)(C)OC(=O)OC[C@@]1(C#N)O[C@@H](c2ccc3c(N)ncnn23)[C@H](O)[C@@H]1O` [Compound 13, ((2R,3S,4R,5S)-5-(4-aminopyrrolo[2,1-f][1,2,4]triazin-7-yl)-2-cyano-3,4-dihydroxytetrahydrofuran-2-yl)methyl tert-butyl carbonate], the pEC50 (commonly −log10 of the EC50, conventionally taken in molar units) in series [1] (HRV16, H1-HeLa) was 5.11; in series [3] (HRV14, H1-HeLa), 5.33. For the same compound, the half-life at 2 μM in series [2] is 1.2 h; in series [4], 1.6 h.
As for `CCC(CC)OC(=O)OC[C@@]1(C#N)O[C@@H](c2ccc3c(N)ncnn23)[C@H](O)[C@@H]1O` [Compound 14, ((2R,3S,4R,5S)-5-(4-aminopyrrolo[2,1-f][1,2,4]triazin-7-yl)-2-cyano-3,4-dihydroxytetrahydrofuran-2-yl)methyl pentan-3-yl carbonate], the negative-log EC50 (pEC50) was 4.30 in series [1] (setting [5]) and 4.35 in series [3] (setting [6]). In addition, the half-life at 2 μM came out at 0.133 h in series [2] and 8.9 h in series [4].
The like results for `CC(C)COC(=O)OC[C@@]1(C#N)O[C@@H](c2ccc3c(N)ncnn23)[C@@H]2OC(=O)O[C@@H]21` [Compound 15, ((3aS,4R,6S,6aS)-6-(4-aminopyrrolo[2,1-f][1,2,4]triazin-7-yl)-4-cyano-2-oxotetrahydrofuro[3,4-d][1,3]dioxol-4-yl)methyl isobutyl carbonate] were, in that order, 5.04, 5.12, 0.0333 h and 0.2 h.
Turning to `N#C[C@]1(COC(=O)O[C@@H]2CCOC2)O[C@@H](c2ccc3c(N)ncnn23)[C@H](O)[C@@H]1O` [Compound 24, ((2R,3S,4R,5S)-5-(4-aminopyrrolo[2,1-f][1,2,4]triazin-7-yl)-2-cyano-3,4-dihydroxytetrahydrofuran-2-yl)methyl ((R)-tetrahydrofuran-3-yl) carbonate], the figures for the negative logarithm of the EC50 (pEC50) in series [1] (setting [5]) and in series [3] (setting [6]) were 4.85 and 4.99, respectively. In addition, the half-life at 2 μM in series [2] came to 2.45 h. Further, in series [4], the “GIS9 DOG T½ (per Ex. Y)” value was found to be 13.2 h.
The like results for `N#C[C@]1(COC(=O)O[C@H]2CCOC2)O[C@@H](c2ccc3c(N)ncnn23)[C@H](O)[C@@H]1O` [Compound 33, ((2R,3S,4R,5S)-5-(4-aminopyrrolo[2,1-f][1,2,4]triazin-7-yl)-2-cyano-3,4-dihydroxytetrahydrofuran-2-yl)methyl ((S)-tetrahydrofuran-3-yl) carbonate] were, in that order, 4.73, 4.81, 2.72 h and 13.2 h.

These data come from patent US20230382940A1, “ANTIVIRAL COMPOUNDS AND METHODS OF MAKING AND USING THE SAME” (Gilead Sciences, Inc., priority 2022, published 2023).
